Paper PMC9415896, “Total Synthesis of the Antimycobacterial Natural Product Chlorflavonin and Analogs via a Late-Stage Ruthenium(II)-Catalyzed ortho-C(sp^2)-H-Hydroxylation” (Pharmaceuticals, 2022)
In brackets after ≈: the same amount, converted by molar mass.

Assays:
M. tuberculosis H37Rv [1] = assay: Minimal inhibitory concentration (MIC) resazurin assay; type: cell-based, Mycobacterium tuberculosis
[2] = Chemical stability in phosphate buffer (HPLC-UV); type: physicochemical
Procedure: Stability testing was performed in phosphate buffer pH 2.0 and 7.4 (prepared according to Ph. Eur. 10) at 20 °C over a period of 48 h. Therefore, 0.4 mg of substance was dissolved in Tween® 20 und ethanol (7/3 v/v) and diluted with the respective phosphate buffer. The solution was shaken with an IKA KS 260 basic (250 min^−1) at 25 °C for 48 h. Analysis was performed after 1, 3, 6, 24, and 48 h by comparing the area under the curve (A.U.C.), which was measured with HPLC-UV at 254 nm (n = 1).

[3] = not given; remark: listed apart in the source
[4] = system: human cell lines MRC-5, HEK-293, THP-1; type: cell-based
Procedure: For the determination of the cytotoxicity of the compounds, different human cell lines were used. The human fetal lung fibroblast cell line MRC-5 (American Type Culture Collection) was incubated in Eagle’s Minimum Essential Medium (EMEM) containing 1% (v/v) Na-pyruvate, whereas the human embryonic kidney cell line HEK-293 (CLS Cell Lines Service GmbH) was cultivated in EMEM supplemented with 2 mM L-glutamine, 1% (v/v) non-essential amino acids, and 1 mM sodium pyruvate. The human monocyte cell line THP-1 (Deutsche Sammlung von Mikroogranismen und Zellkulturen GmbH) was cultured in RPMI 1640 medium. All media were supplemented with 10% (v/v) heat-inactivated fetal bovine serum (FBS).
The cell densities were quantified using a hemocytometer and then adjusted to 10^6 cells/mL. Next, 100 µL per well were seeded in 96-well microtiter plates to yield an inoculation cell density of […] cells per well. Compounds were added employing two-fold serial dilutions resulting in final concentrations ranging from 100 to 0.78 µM. Cells were incubated for two days at 37 °C and 5% CO2 in a humidified atmosphere. […] Fluorescence was measured in a TECAN microplate reader (excitation of 540 nm, emission of 590 nm). The percentage of growth was calculated with respect to DMSO (100% growth) and Triton X-100 (0% growth) controls.

[5] = Single-point metabolic stability in human liver microsomes; type: in vitro ADME
Procedure: The metabolic stability assay was performed in Human Liver Microsomes (HLM) using a single-point metabolic stability assay. Briefly, the compounds were incubated at 1 μM in 0.4 mg/mL human mixed-gender liver microsomes (Xenotech, Kansas City, KS, USA, pool of 50) for 30 min at 37 °C. Reactions were quenched by adding ice-cold acetonitrile containing internal standard. The samples were then centrifuged and analyzed by LC-MS/MS for the disappearance of the parent compound. Half-life, clearance, and hepatic […] ratios were determined using standard equations [47, 48]. Propranolol and midazolam were used as positive controls and treated similarly.

[6] = system: Mtb XDR clinical isolates; conditions: ref Rehberg et al. [14]; cited from earlier work
monocyte cell line THP-1 = conditions: ref Rehberg et al. [14]; cited from earlier work
physchem [7] = conditions: pH 7.4
M. tuberculosis H37Rv [8] = system: M. tuberculosis H37Rv; design: method as in Rehberg et al. [14]; conditions: ref Rehberg et al. [14], cited from earlier work
physchem [9] = assay: physchem
[10] = system: human fetal lung fibroblast cell line MRC-5; conditions: ref Rehberg et al. [14]; cited from earlier work
Mtb = system: Mtb; design: method as in PMID 9818746; conditions: Mtb-infected mice; cited from earlier work

SMILES: COc1cc(O)c2c(=O)c(OC)c(-c3cccc(C)c3O)oc2c1OC
- melting point: 213.3 °C

SMILES: COc1cc(O)c2c(=O)c(OC)c(-c3cccc(Br)c3OC(F)F)oc2c1OC
- melting point: 162.4 °C

SMILES: COc1cc(O)c2c(=O)c(OC)c(-c3cc(F)cc(Cl)c3O)oc2c1OC
- melting point: 245 °C

SMILES: COc1cc(O)c2c(=O)c(OC)c(-c3ccc(Cl)cc3O)oc2c1OC
- melting point: 240.7 °C

SMILES: COc1cc(O)c2c(=O)c(OC)c(-c3ccc(Cl)c(O)c3)oc2c1OC
- melting point: 48 °C

SMILES: COc1cc(O)c2c(=O)c(OC)c(-c3cccc(Cl)c3Cl)oc2c1OC
- melting point: 184.8 °C

SMILES: COc1cc(O)c2c(=O)c(OC)c(-c3cccc(Cl)c3)oc2c1OC
- melting point: 188.3 °C

SMILES: COc1cc(O)c2c(=O)c(OC)c(-c3cccc(Br)c3O)oc2c1OC [BF, bromflavonin]
- Minimal Inhibitory Concentrations (MIC90) (M. tuberculosis H37Rv [1]): 0.78 μm
- antimycobacterial activity (M. tuberculosis H37Rv [1]; Mtb H37Rv, in words): submicromolar
- drug content after 48 h ([2]; phosphate buffer pH 2.0, 48 h): 99%
- drug content after 48 h ([2]; phosphate buffer pH 7.4, 48 h): 99%
- Water solubility at pH 7.4 [3]: <5 μM
- cytotoxicity toward human cells [4]: no cytotoxicity
- CLint, app (predicted in vivo intrinsic clearance) [5]: 53.4

SMILES: COc1cc(O)c2c(=O)c(OC)c(-c3cccc(Cl)c3O)oc2c1OC [CF, chlorflavonin]
- in vitro growth inhibition [6]: strong in vitro growth inhibition
- drug content after 48 h ([2]; phosphate buffer pH 2.0, 48 h): 99%
- drug content after 48 h ([2]; phosphate buffer pH 7.4, 48 h): 99%
- cytotoxicity (monocyte cell line THP-1): no cytotoxicity
- solubility at 24 h (physchem [7]): < 5 µM
- effect of mono treatment (M. tuberculosis H37Rv [8]; mono treatment with CF): bacteriostatic effect
- MIC90 (M. tuberculosis H37Rv [8]; virulent Mtb H37Rv, in vitro growth inhibition): 1.56 µM (≈ 0.591 µg/mL)
- combination effect (M. tuberculosis H37Rv [8]; with delamanid and isoniazid, including intracellular activity against infected human macrophages): synergistic efficacy
- pKa (physchem [9]; pKa1 (2′-OH)): 6.8 ± 0.07
- pKa (physchem [9]; pKa2 (5-OH)): 10.4
- cytotoxicity [10]: no cytotoxicity
- remaining after 30 min ([5]; 1 μM, human liver microsomes 0.4 mg/mL, 30 min, 37 °C): 48%
- melting point: 213.7 °C

SMILES: COc1cc(O)c2c(=O)c(OC)c(-c3cccc(Br)c3O)oc2c1OC [Compound 1a]
- melting point: 210.2 °C

SMILES: COc1cc(O)c2c(=O)c(OC)c(-c3cccc(F)c3O)oc2c1OC [Compound 1b]
- melting point: 208.6 °C

SMILES: COc1cc(O)c2c(=O)c(OC)c(-c3cccc(I)c3O)oc2c1OC [Compound 1c]
- melting point: 223.4 °C

SMILES: COc1cc(O)c2c(=O)c(OC)c(-c3cccc(C(F)(F)F)c3O)oc2c1OC [Compound 1d]
- melting point: 195.4 °C

SMILES: COc1cc(O)c2c(=O)c(OC)c(-c3cccc(Br)c3F)oc2c1OC [Compound 1f]
- melting point: 217.4 °C

SMILES: COc1cc(O)c2c(=O)c(OC)c(-c3cc(F)cc(Br)c3O)oc2c1OC [Compound 1i]
- melting point: 251.4 °C

SMILES: COC(=O)c1ccccc1S(=O)(=O)NC(=O)Nc1nc(C)cc(C)n1 [sulfometuron methyl]
- proliferation of the pathogen in the host's lungs (Mtb): significantly reduced proliferation
